Results from PubChem BioAssay (NCI).
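96-well plates; 48 h exposure; 5 concentrations. Endpoints by linear interpolation between flanking doses. Not reached: highest tested concentration assigned. TGI: total growth inhibition.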

Experiments:
Test in all cases: growth of human tumour cells (NCI), 48 h
[1] = tested on: OVCAR-3 ovarian
[2] = tested on: LOX IMVI melanoma
[3] = tested on: BT-549 breast
[4] = tested on: SF-539 CNS
[5] = tested on: KM12 colon
[6] = tested on: UACC-62 melanoma
[7] = tested on: MDA-MB-231 breast
[8] = tested on: M14 melanoma
[9] = tested on: MOLT-4 leukemia
[10] = tested on: SR leukemia
[11] = tested on: HOP-92 NSCLC
[12] = tested on: NCI-H522 lung
[13] = tested on: MALME-3M melanoma
[14] = tested on: OVCAR-8 ovarian
[15] = tested on: IGROV1 ovarian
[16] = tested on: MDA-N
[17] = tested on: ACHN renal
[18] = tested on: DU-145 prostate
[19] = tested on: SNB-75 CNS
[20] = tested on: HS 578T breast
[21] = tested on: NCI-H226 lung
[22] = tested on: SF-268 CNS
[23] = tested on: SNB-19 CNS
[24] = tested on: RPMI-8226 leukemia
[25] = tested on: HOP-62 NSCLC
[26] = tested on: 786-0 renal
[27] = tested on: HT29 colon
[28] = tested on: TK-10 renal
[29] = tested on: HCC-2998 colon
[30] = tested on: HCT-116 colon
[31] = tested on: SW-620 colon
[32] = tested on: SK-MEL-2 melanoma
[33] = tested on: NCI/ADR-RES ovarian
[34] = tested on: NCI-H460 lung
[35] = tested on: OVCAR-4 ovarian
[36] = tested on: U251 CNS
[37] = tested on: UACC-257 melanoma
[38] = tested on: CCRF-CEM leukemia
[39] = tested on: HCT-15 colon
[40] = tested on: OVCAR-5 ovarian
[41] = tested on: SF-295 CNS
[42] = tested on: SK-MEL-5 melanoma
[43] = tested on: CAKI-1 renal
[44] = tested on: SK-OV-3 ovarian
[45] = tested on: PC-3 prostate
[46] = tested on: SK-MEL-28 melanoma
[47] = tested on: A549 NSCLC
[48] = tested on: MCF7 breast
[49] = tested on: EKVX NSCLC
[50] = tested on: UO-31 renal
[51] = tested on: COLO 205 colon
[52] = tested on: MDA-MB-435
[53] = tested on: K-562 leukemia
[54] = tested on: SN12C renal
[55] = tested on: HL-60(TB) leukemia
[56] = tested on: RXF 393 renal
[57] = tested on: NCI-H23 lung
[58] = tested on: T-47D breast
[59] = tested on: A498 renal

`N=C1/C(=C/c2ccccc2)C(=O)N=C2SC=NN12` was tested, and the TGI [1] was > 100 µM, the TGI [2] was > 100 µM and the TGI [3] was > 100 µM. The TGI [4] was 88.5 µM, the TGI [5] was > 100 µM and the TGI [6] was > 100 µM. The TGI [7] was > 100 µM, the TGI [8] was > 100 µM and the TGI [9] was > 100 µM. The TGI [10] was > 100 µM, the TGI [11] was > 100 µM and the TGI [12] was > 100 µM. The TGI [13] was > 100 µM, the TGI [14] was > 100 µM and the TGI [15] was > 100 µM. For the same molecule, the TGI [16] was > 100 µM, the TGI [17] was > 100 µM and the TGI [18] was > 100 µM. The TGI [19] was > 100 µM, the TGI [20] was > 100 µM and the TGI [21] was > 100 µM. The TGI [22] was > 100 µM, the TGI [23] was > 100 µM and the TGI [24] was > 100 µM. For the same molecule, the TGI [25] was > 100 µM, the TGI [26] was > 100 µM and the TGI [27] was > 100 µM. For the same molecule, the TGI [28] was > 100 µM, the TGI [29] was > 100 µM and the TGI [30] was > 100 µM. The TGI [31] was > 100 µM, the TGI [32] was > 100 µM and the TGI [33] was > 100 µM. For the same molecule, the TGI [34] was > 100 µM, the TGI [35] was > 100 µM and the TGI [36] was > 100 µM. For the same molecule, the TGI [37] was > 100 µM, the TGI [38] was > 100 µM and the TGI [39] was > 100 µM. The TGI [40] was > 100 µM, the TGI [41] was > 100 µM and the TGI [42] was > 100 µM. For the same molecule, the TGI [43] was > 100 µM, the TGI [44] was > 100 µM and the TGI [45] was > 100 µM. The TGI [46] was > 100 µM, the TGI [47] was > 100 µM and the TGI [48] was > 100 µM. The TGI [49] was > 100 µM, the TGI [50] was > 100 µM and the TGI [51] was > 100 µM. The TGI [52] was > 100 µM, the TGI [53] was > 100 µM and the TGI [54] was > 100 µM. The TGI [55] was > 100 µM, the TGI [56] was > 100 µM and the TGI [57] was > 100 µM. The TGI [58] was > 100 µM.
With `N#CC12CC=C(c3ccccc3)N=C1NC(c1ccccc1)=CC2` (stereo unspecified) the TGI [1] was > 100 µM, the TGI [2] was > 100 µM and the TGI [3] was > 100 µM. For the same molecule, the TGI [4] was > 100 µM, the TGI [5] was > 100 µM and the TGI [6] was > 100 µM. For the same molecule, the TGI [7] was > 100 µM, the TGI [8] was > 100 µM and the TGI [9] was 55.1 µM. The TGI [10] was 82.2 µM, the TGI [11] was 92.2 µM and the TGI [12] was > 100 µM. The TGI [13] was > 100 µM, the TGI [14] was > 100 µM and the TGI [15] was > 100 µM. For the same molecule, the TGI [16] was > 100 µM, the TGI [17] was > 100 µM and the TGI [18] was > 100 µM. For the same molecule, the TGI [19] was > 100 µM, the TGI [20] was > 100 µM and the TGI [21] was > 100 µM. The TGI [22] was > 100 µM, the TGI [23] was > 100 µM and the TGI [24] was 73.8 µM. The TGI [25] was > 100 µM, the TGI [26] was > 100 µM and the TGI [27] was > 100 µM. The TGI [28] was > 100 µM, the TGI [29] was > 100 µM and the TGI [30] was > 100 µM. For the same molecule, the TGI [31] was > 100 µM, the TGI [32] was > 100 µM and the TGI [33] was > 100 µM. The TGI [34] was > 100 µM, the TGI [35] was > 100 µM and the TGI [36] was > 100 µM. For the same molecule, the TGI [37] was > 100 µM, the TGI [38] was 77.7 µM and the TGI [39] was > 100 µM. For the same molecule, the TGI [40] was > 100 µM, the TGI [41] was > 100 µM and the TGI [42] was 39.4 µM. The TGI [44] was > 100 µM, the TGI [45] was > 100 µM and the TGI [46] was > 100 µM. For the same molecule, the TGI [59] was 97 µM, the TGI [47] was > 100 µM and the TGI [48] was > 100 µM. The TGI [49] was > 100 µM, the TGI [50] was > 100 µM and the TGI [51] was > 100 µM. The TGI [52] was > 100 µM, the TGI [53] was > 100 µM and the TGI [54] was > 100 µM. The TGI [55] was 50.5 µM, the TGI [56] was > 100 µM and the TGI [57] was > 100 µM. For the same molecule, the TGI [58] was > 100 µM.
